According to patent publication US11214803B2, “Modulators of YAP1 expression” (Ionis Pharmaceuticals, Inc., priority 2019, dated 2022):
Strand notation (5' to 3'): a small letter for the sugar, then the base; units joined by * are phosphorothioate-linked, units joined directly phosphodiester-linked; [ ] holds rarer units or linkages, { } end groups; capitals alone tell only the bases. k = constrained ethyl (cEt); [5mC] = 5-methylcytosine; d = 2'-deoxy (DNA)

How the values were obtained:
Yap1 mRNA [1] = assay: Antisense inhibition of human Yap1 in A-431 cells by cEt gapmers, single dose (Example 2, RTS4814); type: cell-based
Procedure, shortened: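 Yap1 mRNA levels, by real-time RT-PCR (RTS4814) and corrected for total RNA via RIBOGREEN, are given as percent of untreated cells. Gapmers (16-mer, cEt wings, phosphorothioate, 5-methylC) were delivered without transfection at 2,000 nM to A-431 cells for about 48 hours.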

Yap1 mRNA [2] = assay: Dose-dependent inhibition of human Yap1 in A-431 cells (Example 8, 10,000 cells per well, RTS4814); type: cell-based; conditions: free uptake, approximately 48 hours, RTS4814; for Yap1 mRNA, % UTC: A-431 cells, 10,000 cells per well; for IC50: A-431 cells, linear regression on log/linear plot
Procedure, shortened: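 Yap1 mRNA, normalized to RIBOGREEN total RNA and expressed as % untreated control, was read with RTS4814 about 48 h after free-uptake oligonucleotide treatment of A-431 cells at 10,000 cells/well. IC50 derived by linear regression of log/linear data.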

[3] = Yap1 mRNA as percent of untreated control, A-431 cells, 3-10-3 cEt gapmers targeting SEQ ID NO.: 1, and 2, Table 31
[4] = Yap1 mRNA as percent of untreated control, A-431 cells, 3-10-3 cEt gapmers targeting SEQ ID NO.: 1, and 2, Table 30
[5] = Table 5, A-431 cells, 5,000 cells per well, free uptake, 2,000 nM modified oligonucleotide, approx. 48 hours, RTS4814, normalized to RIBOGREEN, Yap1 mRNA relative to untreated control cells
[6] = Table 24, Yap1 mRNA as percent of untreated control, 3-10-3 cEt gapmers targeting SEQ ID NO.: 1, and 2
[7] = Table 22, Yap1 mRNA as percent of untreated control, 3-10-3 cEt gapmers, single dose

For “1074579 (DNA k[5mC]*k[5mC]*kA*d[5mC]*dT*dA*dT*dA*dA*dA*dG*d[5mC]*dT*kT*kA*kT) [compound 1074579]”, the “YAP1 (% UTC)” value (Yap1 mRNA [1]; Table 33, Yap1 mRNA, percent of untreated control, 3-10-3 cEt gapmers targeting SEQ ID NO.: 1, and 2) was 6 % UTC, the “Yap1 mRNA, % UTC” value (Yap1 mRNA [2]; 31.3 nM) was 54 % UTC and the “Yap1 mRNA, % UTC” value (Yap1 mRNA [2]; 125.0 nM) was 22 % UTC. For the same substance, the “Yap1 mRNA, % UTC” value (Yap1 mRNA [2]; 500.0 nM) was 8 % UTC, the “Yap1 mRNA, % UTC” value (Yap1 mRNA [2]; 2000.00 nM) was 5 % UTC and the IC50 (Yap1 mRNA [2]) was < 20 nM.
With “1076017 (k[5mC]*kT*kA*dA*dT*dA*dG*dG*dA*dT*dG*dG*dA*kT*kT*k[5mC]; antisense) [compound 1076017]” the “YAP1 (% UTC)” value (Yap1 mRNA [1]; [3]) was 5 % UTC, the “Yap1 mRNA, % UTC” value (Yap1 mRNA [2]; 31.3 nM) was 59 % UTC and the “Yap1 mRNA, % UTC” value (Yap1 mRNA [2]; 125.0 nM) was 25 % UTC. For the same substance, the “Yap1 mRNA, % UTC” value (Yap1 mRNA [2]; 500.0 nM) was 9 % UTC, the “Yap1 mRNA, % UTC” value (Yap1 mRNA [2]; 2000.00 nM) was 5 % UTC and the IC50 (Yap1 mRNA [2]) was 30 nM.
“1076464 (k[5mC]*kA*kT*dA*dT*dA*d[5mC]*dA*dA*dT*dT*d[5mC]*dT*kG*k[5mC]*k[5mC]; antisense) [compound 1076464]” was tested, and the “YAP1 (% UTC)” value (Yap1 mRNA [1]; [4]) was 2 % UTC, the “Yap1 mRNA, % UTC” value (Yap1 mRNA [2]; 31.3 nM) was 36 % UTC and the “Yap1 mRNA, % UTC” value (Yap1 mRNA [2]; 125.0 nM) was 10 % UTC. The “Yap1 mRNA, % UTC” value (Yap1 mRNA [2]; 500.0 nM) was 3 % UTC, the “Yap1 mRNA, % UTC” value (Yap1 mRNA [2]; 2000.00 nM) was 2 % UTC and the IC50 (Yap1 mRNA [2]) was < 20 nM.
In the case of “1074578 (DNA kG*k[5mC]*kT*dT*dA*dT*dT*dT*d[5mC]*dT*dG*dT*d[5mC]*kA*kT*kG) [compound 1074578]”, the “YAP1 (% UTC)” value (Yap1 mRNA [1]; Table 32, Yap1 mRNA, percent of untreated control, 3-10-3 cEt gapmers targeting SEQ ID NO.: 1, and 2) is reported as 8 % UTC, the “Yap1 mRNA, % UTC” value (Yap1 mRNA [2]; 31.3 nM) is reported as 66 % UTC and the “Yap1 mRNA, % UTC” value (Yap1 mRNA [2]; 125.0 nM) is reported as 30 % UTC. For the same substance, the “Yap1 mRNA, % UTC” value (Yap1 mRNA [2]; 500.0 nM) was 18 % UTC, the “Yap1 mRNA, % UTC” value (Yap1 mRNA [2]; 2000.00 nM) was 11 % UTC and the IC50 (Yap1 mRNA [2]) was 100 nM.
For “1075665 (antisense kA*kT*kT*dT*dA*dG*dT*dT*dG*dT*dG*d[5mC]*dA*k[5mC]*kA*kG) [compound 1075665]”, the “YAP1 (% UTC)” value (Yap1 mRNA [1]; [3]) was 87 % UTC.
“716449 (kG*kG*kT*d[5mC]*dA*dT*dT*dT*dG*d[5mC]*d[5mC]*dT*dA*kG*kG*kT; antisense) [Compound 716449]” was tested, and the “YAP1 (% UTC)” value (Yap1 mRNA [1]; [5]) was 49 % UTC.
With “1075594 (kT*kG*kA*dG*dA*dA*dT*dA*dT*dT*d[5mC]*d[5mC]*dT*k[5mC]*k[5mC]*k[5mC]; antisense) [Compound 1075594]” the “YAP1 (% UTC)” value (Yap1 mRNA [1]; [6]) was 64 % UTC.
“716379 (k[5mC]*k[5mC]*kA*dG*dA*dA*dG*dA*dT*dG*dT*d[5mC]*dT*kT*kT*kG; antisense) [Compound 716379]” was tested, and the “YAP1 (% UTC)” value (Yap1 mRNA [1]; A-431 cells, 5,000 cells per well, free uptake, 2,000 nM modified oligonucleotide, approx. 48 hours, RTS4814, normalized to RIBOGREEN, Table 4, asterisk (*) = targets amplicon region of primer probe set) was 123 % UTC.
With “716434 (kT*kA*kA*dA*dT*dG*d[5mC]*dT*dG*dT*dG*dA*d[5mC]*kA*kT*kG; antisense) [Compound 716434]” the “YAP1 (% UTC)” value (Yap1 mRNA [1]; [5]) was 44 % UTC.
With “716398 (kT*kA*kT*dT*d[5mC]*d[5mC]*dG*d[5mC]*dA*dT*dT*dG*d[5mC]*k[5mC]*kT*kG; antisense) [Compound 716398]” the “YAP1 (% UTC)” value (Yap1 mRNA [1]; [5]) was 70 % UTC.
For “716488 (k[5mC]*kA*kT*dT*dA*dT*dT*dA*d[5mC]*dT*d[5mC]*d[5mC]*dT*kG*kT*kA; antisense) [Compound 716488]”, the “YAP1 (% UTC)” value (Yap1 mRNA [1]; [5]) was 67 % UTC.
“1074632 (antisense kT*k[5mC]*kA*dT*dA*dG*d[5mC]*dA*dG*d[5mC]*dT*dT*dT*kT*kG*k[5mC]) [Compound 1074632]” was tested, and the “YAP1 (% UTC)” value (Yap1 mRNA [1]; [7]) was 12 % UTC.
In the case of “1074406 (antisense kA*kA*kA*dG*dT*dA*dT*d[5mC]*dT*dT*dG*d[5mC]*dT*kG*kG*kA) [Compound 1074406]”, the “YAP1 (% UTC)” value (Yap1 mRNA [1]; Table 20, Yap1 mRNA, percent of untreated control, 3-10-3 cEt gapmers targeting SEQ ID NO.: 1 and 2) is reported as 16 % UTC.
For “1074922 (antisense k[5mC]*kT*kT*dT*d[5mC]*d[5mC]*dA*d[5mC]*dT*d[5mC]*dA*dA*dG*kT*kT*kA) [Compound 1074922]”, the “YAP1 (% UTC)” value (Yap1 mRNA [1]; [6]) was 87 % UTC.
“1075120 (kA*kA*kT*dT*dA*dG*d[5mC]*d[5mC]*dT*dA*d[5mC]*d[5mC]*dA*k[5mC]*k[5mC]*kT; antisense) [compound 1075120]” was tested, and the “YAP1 (% UTC)” value (Yap1 mRNA [1]; [4]) was 42 % UTC.
For “1074313 (antisense kT*kG*kA*dT*dA*dT*dT*d[5mC]*d[5mC]*dG*d[5mC]*dA*dT*kT*kG*k[5mC]) [Compound 1074313]”, the “YAP1 (% UTC)” value (Yap1 mRNA [1]; Table 23, Yap1 mRNA as percent of untreated control, 3-10-3 cEt gapmers, single dose) was 5 % UTC.
“1074568 (antisense kG*kA*kA*d[5mC]*d[5mC]*dT*dA*d[5mC]*dT*d[5mC]*dA*d[5mC]*dT*kG*kA*kA) [Compound 1074568]” was tested, and the “YAP1 (% UTC)” value (Yap1 mRNA [1]; [7]) was 12 % UTC.
With “1074704 (antisense k[5mC]*kA*k[5mC]*dG*dG*dT*dG*dT*dA*dA*dG*dA*d[5mC]*kA*kA*kG) [compound 1074704]” the “YAP1 (% UTC)” value (Yap1 mRNA [1]; [4]) was 16 % UTC.
